pEC50: −log10 of the molar value. “Also recorded” adds a separate entry of the source.
Tests used:
HEV = assay type: cell-based
HCoV-229E [1] = assay: microbe, parasite or virus in culture; assay type: cell-based; conditions: Human coronavirus 229E, MRC5
5′-UTR of MERS-CoV = assay type: cell-based
LASV = assay: cells; assay type: cell-based
CCHFV = assay: cells; assay type: cell-based
VP35-HP+(AG)5 = assay type: cell-based, EBOV
(AC)15 sequence = assay type: cell-based
5′-UTR of HCoV-229E = assay type: cell-based
[2] = tested on: HEVgt3c-G4C and HEVgt3c-G4CC6A; assay type: cell-based, HEV
in vitro = conditions: human
tumor growth = conditions: xenograft mouse model ref Wolfe et al., 2014; cited from earlier work
HCoV-229E [3] = assay type: cell-based
HEVgt3c-Purine 5′-UTR = assay type: cell-based, HEV
5′-UTR of HEV (HEVgt3c) = assay type: cell-based; conditions: 10 nM
5′-UTR of EBOV VP35 = assay type: cell-based
ZIKV = assay: Antiviral activity in ZIKV-infected A549 cells; assay type: cell-based; conditions: ZIKV RNA, MOI 0.1, 24 hpi
5′-UTR of EBOV VP30 mRNA = assay type: cell-based
[4] = Cell toxicity in murine hepatocytes; conditions: mouse, murine hepatocytes (mock infected)
[5] = tested on: 5′-terminal hairpin of VP35 (VP35-HP only); assay type: cell-based, EBOV
A549 cells = conditions: human
(AG)15 construct = assay: cells; assay type: cell-based; conditions: read-out: inhibited translation
[6] = tested on: persistently HEV-infected A549 cells; assay: Cell viability of persistently HEV-infected A549 cells; conditions: 2 nM, 72 h
[7] = 2014, cited from earlier work

COC(=O)[C@H]1[C@@H](O)[C@@]2(O)c3c(OC)cc(O[C@@H]4O[C@@H]([C@H](O)CO)CO[C@H]4OC)cc3O[C@@]2(c2ccc(OC)cc2)[C@@H]1c1ccccc1 [Silvestrol]
antiviral effect against HEV (extracellular viral RNA levels) (HEV): confirmed the antiviral activity; also recorded: reduce the levels of extracellular HEV RNA | pEC50 (HCoV-229E [1]): 8.52 | sensitivity to translation inhibition (5′-UTR of MERS-CoV): similarly sensitive | virus titer drop, LASV (LASV): ~ 4 log | pEC50 (LASV; Mus musculus, Hepatocyte): 7.29 | virus titer drop, CCHFV (CCHFV): 3 log | pEC50 (CCHFV; Mus musculus, Hepatocyte): 7.54 | effect on reporter activity (VP35-HP+(AG)5): slightly increased translation inhibition | induction of luciferase activity ((AC)15 sequence): 1.5 fold | sensitivity to translation inhibition (5′-UTR of HCoV-229E): similarly sensitive | inhibitory effect [2]: gradual loss of the inhibitory effect | CC50 (in vitro): > 10000 nM | tumor growth (tumor growth): reduced tumor growth efficiently | virus titer in the supernatant reduced by (HCoV-229E [3]): similar | infectious virus production (HCoV-229E [3]; 100 nM): undetectable levels | sensitivity to treatment (HEVgt3c-Purine 5′-UTR): sensitive | luciferase activity (5′-UTR of HEV (HEVgt3c)): reduced luciferase activity | sensitivity to translation inhibition (5′-UTR of EBOV VP35): sensitive | pEC50 (ZIKV): 8.97 | sensitivity to translation inhibition (5′-UTR of EBOV VP30 mRNA): similarly sensitive | CC50 [4]: > 5000 nM | effect on reporter activity [5]: sufficient to mediate translation inhibition | CC50 (A549 cells): 9.42 nM | inhibition at 0.01 µM ((AG)15 construct): ~55% | cytotoxicity [6]: some cytotoxicity

CR-31-B
tumor growth (tumor growth): reduced tumor growth efficiently | cytotoxic effects (MRC-5 cells): no major cytotoxic effects | body weight or the number of blood cells ([7]; mice ref Wolfe et al.): did not change | toxicity in the gastrointestinal tract ([7]; mice ref Wolfe et al.): no toxicity could be observed | serum levels of aminotransferases (ALT and AST), albumin, total bilirubin, creatinine ([7]; two weeks after cessation of treatment ref Wolfe et al.): not significantly changed | cytotoxicity [6]: not cytotoxic
